{
  "source": "patent US20160193148A1",
  "about": "“LIPOSOMAL FORMULATIONS FOR THE TREATMENT OF BACTERIAL INFECTIONS” (UNIVERSITY OF GEORGIA RESEARCH FOUNDATION, INC., priority 2013, published 2016)",
  "key": {"[1]": {"experiment": "Repeated dose IV LG or FG: indices of renal injury and tolerability in foals", "protocol": "Subsequently, twelve healthy foals were administered either LG or FG at 6.6 mg/kg IV q 24 hours for 7 doses, and urinary protein, creatinine, γ-glutamyltransferase, and electrolytes were measured on days 0, 3 and 7 to quantify renal injury. Concentrations of gentamicin were measured using HPLC-MS.\nEach dose was diluted in 250 ml of sterile 0.9% saline and administered over 15 minutes via an indwelling 14 G catheter placed in a jugular vein. Blood samples for plasma separation and measurement of gentamicin concentrations were obtained on day 1 and on day 7 at the times listed for study 1. Bronchoalveolar lavage fluid was collected 2, 6 and 24 hours after the end of infusion on day 7. Urine was collected the day prior to the first drug dose (day 0) and again 2 hours after the end of the infusion on days 3 and 7. Foals were sedated with xylazine hydrochloride (1.1 mg/kg bwt IV) and anesthetized with ketamine (2.2 mg/kg bwt IV) to allow passage of a urinary catheter using aseptic techniques. Urinalysis was performed and urine and concurrently obtained plasma samples were submitted for measurement of creatinine, γ-glutamyltransferase (GGT), protein, calcium, chloride, magnesium, sodium, and potassium concentrations. Fractional excretion of electrolytes, urinary GGT to creatinine ratio, and urinary protein to creatinine ratios were calculated. Prior to analysis for gentamicin concentration by LC-MS, urine and plasma samples were centrifuged at 400×g for 10 minutes and the supernatant was frozen at −80° C. until assayed.\nNormality and equality of variance of the data were assessed with use of the Shapiro-Wilk and Levene tests, respectively. Data that were not normally distributed were log or rank transformed. The paired t test or the Wilcoxon rank sum test was used to compare IV pharmacokinetic variables between LF and FG. The effects of drug (LG vs FG), administration route (IV vs nebulized) and the interactions between drug and administration route on PELF and BAL cell pharmacokinetic variables were assessed using a two-way ANOVA for repeated measurement. For study 2, the effects of drug (LG vs FG), time (day 0, day 3, and day 7), and the interactions between drug and time on renal indices were assessed using a two-way ANOVA with one factor repetition (time). When warranted, multiple pairwise comparisons were done by use of the Holm-Sidak test. The paired t test or the Wilcoxon rank sum test was used to compare IV pharmacokinetic variables obtained on day 1 to those obtained on day 7. Significance was set at P<0.05."}, "R. equi isolates": {"test_system": "R. equi isolates", "conditions": "Riesenberg et al. 2013; cited from earlier work"}, "[2]": {"conditions": "repeated daily IV dosing, 6 foals per group"}},
  "note": "Marks after values point to notes of the source that are not given here.",
  "data": [
    {"substance": "gentamicin sulfate [Free Gentamicin]", "values": [
      {"measurement": "FE Ca^2+", "setting": "[1]; Day 0 (before first dose)", "result": "3.5 ± 3.4", "unit": "%"},
      {"measurement": "FE Cl^−", "setting": "[1]; Day 0 (before first dose)", "result": "0.60 ± 0.29", "unit": "%"},
      {"measurement": "FE K^+", "setting": "[1]; Day 0 (before first dose)", "result": "10.1 ± 4.9", "unit": "%"},
      {"measurement": "FE Mg^2+", "setting": "[1]; Day 0 (before first dose)", "result": "13.9 ± 8.91", "unit": "%"},
      {"measurement": "FE Na^+", "setting": "[1]; Day 0 (before first dose)", "result": "0.28 ± 0.4^a %"},
      {"measurement": "Plasma creatinine", "setting": "[1]; Day 0 (before first dose)", "result": "116.39 ± 20.48", "unit": "µmol/L"},
      {"measurement": "USG (urine specific gravity)", "setting": "[1]; Day 0 (before first dose)", "result": "1.003 ± 0.002"},
      {"measurement": "Urine pH", "setting": "[1]; Day 0 (before first dose)", "result": "7.2 ± 0.7"},
      {"measurement": "FE Ca^2+", "setting": "[1]; Day 3", "result": "1.9 ± 1.1", "unit": "%"},
      {"measurement": "FE Cl^−", "setting": "[1]; Day 3", "result": "0.6 ± 0.2", "unit": "%"},
      {"measurement": "FE K^+", "setting": "[1]; Day 3", "result": "18.4 ± 12.2", "unit": "%"},
      {"measurement": "FE Mg^2+", "setting": "[1]; Day 3", "result": "11.2 ± 6.5", "unit": "%"},
      {"measurement": "FE Na^+", "setting": "[1]; Day 3", "result": "0.12 ± 0.05^a %"},
      {"measurement": "Plasma creatinine", "setting": "[1]; Day 3", "result": "120.81 ± 21.41", "unit": "µmol/L"},
      {"measurement": "USG (urine specific gravity)", "setting": "[1]; Day 3", "result": "1.008 ± 0.008"},
      {"measurement": "Urine pH", "setting": "[1]; Day 3", "result": "6.3 ± 0.8"},
      {"measurement": "difference from baseline (day 0) in urine pH", "setting": "[1]; Day 3", "result": "−0.83*"},
      {"measurement": "FE Ca^2+", "setting": "[1]; Day 7", "result": "1.6 ± 1.4", "unit": "%"},
      {"measurement": "FE Cl^−", "setting": "[1]; Day 7", "result": "0.78 ± 0.19", "unit": "%"},
      {"measurement": "FE K^+", "setting": "[1]; Day 7", "result": "16.8 ± 10.6", "unit": "%"},
      {"measurement": "FE Mg^2+", "setting": "[1]; Day 7", "result": "9.8 ± 4.7", "unit": "%"},
      {"measurement": "FE Na^+", "setting": "[1]; Day 7", "result": "0.27 ± 0.12^b %"},
      {"measurement": "Plasma creatinine", "setting": "[1]; Day 7", "result": "117.87 ± 24.79", "unit": "µmol/L"},
      {"measurement": "USG (urine specific gravity)", "setting": "[1]; Day 7", "result": "1.002 ± 0.001"},
      {"measurement": "Urine pH", "setting": "[1]; Day 7", "result": "6.3 ± 0.3"},
      {"measurement": "difference from baseline (day 0) in urine pH", "setting": "[1]; Day 7", "result": "−1.67*"},
      {"measurement": "casts on urine sediment analysis", "setting": "[1]; day 7, 6 foals per group", "result": "One foal"},
      {"measurement": "mild self-limiting diarrhea during treatment", "setting": "[1]; [2]", "result": "One foal"},
      {"measurement": "thrombophlebitis", "setting": "[1]; [2]", "result": 2, "unit": "foals"},
      {"measurement": "MIC that inhibits at least 90% (MIC90) of R. equi isolates", "setting": "R. equi isolates", "result": 0.5, "unit": "mg/L"}
    ]}
  ]
}
